Test results from patent US20070166251A1, “Composition and method for treating hyperpigmented skin” (LIPO CHEMICALS INC., priority 2005, published 2007).
Values belong to the compound of their own block, whether it stands above or below them.

Legend:
[1] = clinical study of skin brightening and skin redness (chromameter readings); assay type: in vivo, human; conditions: 0.3% emulsion twice daily
Protocol: The skin brightening efficacy of p-HCA in ethoxydyglycol versus kojic acid also was tested in a clinical study. In this study, an emulsion containing 0.3%, by weight, p-HCA or kojic acid was used on twenty, mostly female, subjects between the ages of 30 to 50 years. The test composition was applied to the abdomen twice daily (a.m. and p.m.). The test was conducted for eight weeks, and chromameter readings were taken at baseline, and after 2, 4, 6, and 8 weeks.

[2] = metabolism of p-HCA in homogenized human skin; assay type: in vitro ADME; conditions: eight hours of incubation with skin enzymes, 37° C.
Protocol: First, to confirm in vivo activity of p-HCA, the metabolism of p-HCA in the skin was determined. In this test, human skin was homogenized in a PBS (phosphate-buffered saline)-ethanol solution, followed by dissolution of p-HCA. The solution was incubated at 37° C. for 8 hours. Samples were taken after 0, 4, and 8 hours, and were centrifuged. The supernatant was filtered and analyzed by HPLC. […] The amount of p-HCA that is metabolized was considered insignificant with respect to an efficacious treatment of hyperpigmentation.

[3] = solubility of p-HCA in various solvents (HPLC); assay type: physicochemical
Protocol: Various solvents were tested for an ability to dissolve p-HCA and provide a suitable composition for topical application to efficaciously treat hyperpigmentation, e.g., to allow the HCA to permeate the surface of the skin and deposit the p-HCA at the site of melanin formation. p-HCA was added to various solvents, then sonicated for two hours at 35° C. until no further HCA was dissolved. The samples were cooled to room temperature (25° C.) and allowed to stabilize for 15 hours. The undissolved p-HCA was allowed to settle, the supernatant liquid was filtered through a 0.2 micron syringe filter. Approximately 0.08 g of this filtered material was weighed into a 25 ml volumetric flask and diluted to volume with HPLC mobile phase. Two standards were analyzed by HPLC and compared to the two samples. All samples were analyzed by HPLC on a Hypersil ODS C18 column using water, methanol, glacial acetic acid (55:45:1) as the mobile phase. The flow rate was 1 ml/min and the wavelength for detection was 270 nm.

[4] = skin penetration, Franz diffusion cells; assay type: in vitro ADME, human
Protocol: In another experiment, a 10% solution of p-HCA in ethoxydiglycol first was prepared. This solution was added to a skin care emulsion in a sufficient amount to provide either 0.3% or 0.1%, by weight, of p-HCA in the final composition. As a comparative example, 0.3%, by weight, of solid p-HCA was added to the same skin care emulsion. The skin care emulsion to which solid p-HCA or the p-HCA solution was added had the following formula (w/w%): • 85.35 water • 0.2 methylparaben • 0.35 xanthan gum • 5.0 butylene glycol • 4.0 sesame oil • 2.5 glyceryl stearate • 0.5 PEG-150 distearate • 1.25 neopentyl glycol dicaprylate/dicaprate • 0.6 emulsifying wax • 0.25 imidazolidinyl urea.
The skin care emulsions containing p-HCA were applied to cadaver skin. Skin penetration of p-HCA was studied using Franz diffusion cells, n=5 (Permegear, Bethlehem, Pa.). The receptor contained an isotonic phosphate buffer with 30% ethanol, and was stirred continuously at 600 rpm. Samples of dermatomed human cadaver skin (NDRA, Philadelphia) were placed on the cells and prehydrated for 1 hour prior to the experiment. One milliliter of each formulation was added to the donor compartment of each cell, which was covered tightly with PARAFIL®. Samples (300 μl) were withdrawn from the receptor compartment every hour over 8 hours, and replaced with 300 μl of fresh receptor solution. After 8 hours, the skin was removed and cut into small pieces. The skin pieces were homogenized using a Kinematica POLYTRON® homogenizer and centrifuged. The supernatant was filtered through 0.22μ filters, and the p-HCA content was quantified.
All samples were analyzed by HPLC on a Hypersil ODS C18 column using water, methanol, glacial acetic acid (55:45:1) as the mobile phase at a flow rate of 1 ml/min and detection at 270 nm. Lag time and flux were obtained from permeation profiles and skin drug content also was recorded.
This experiment was repeated using PEG-4 as the solvent for the p-HCA.
The method used to determine skin permeability was the Franz diffusion method disclosed above. […] In particular, 3.9 mcg/ml of p-HCA was found in the receptor compartment of the skin (i.e., permeated through the skin) as opposed to 16.3 mcg/ml p-HCA found within the skin.

[5] = ethoxydiglycol vs solid p-HCA, FIG. 1 and Table 1
[6] = formula: 0.5% p-HCA, 53% ethanol, Carbopol 981, glycerin, triethanolamine, water
[7] = in presence of ethoxydiglycol vs powder form

effect on skin redness ([1]; throughout the eight-week clinical trial): did not reduce redness | effect on skin redness ([1]; weeks 4 and 8): induced redness
Compound: O=c1cc(CO)occ1O [kojic acid]

p-HCA metabolized [2]: 3.6% | solubility in 30% hydroethanolic solution ([3]; 30% hydroethanolic solution, 25° C.): 0.75 wt % | solubility in PEG-4 ([3]; PEG-4, 25° C.): 18.5 wt % | solubility in PEG-6 ([3]; PEG-6, 25° C.): 19.7 wt % | solubility in PEG-8 ([3]; PEG-8, 25° C.): 19.7 wt % | solubility in butylene glycol ([3]; butylene glycol, 25° C.): 2.25 wt % | solubility in diethylene glycol ([3]; diethylene glycol, 25° C.): 18.1 wt % | solubility in ethanol ([3]; ethanol, 25° C.): 14.8 wt % | solubility in ethoxydiglycol ([3]; ethoxydiglycol, 25° C.): 19.7 %, by weight | solubility in glycereth-26 ([3]; glycereth-26, 25° C.): 7 wt % | solubility in pentylene glycol ([3]; pentylene glycol, 25° C.): 1.75 wt % | solubility in silicone fluid DC 193 ([3]; silicone fluid DC 193, 25° C.): 4.7 wt % | deposition of p-HCA on the skin compared to a control ([4]; PEG-4 as the solvent for the p-HCA): significantly increased | elevation of deposition of p-HCA in the skin [4, 5]: 93% | increase of flux into the skin [4, 5]: 107% | amount of HCA deposited in the skin relative to amount transmitted through the skin [4, 6]: four times greater | p-HCA found in the receptor compartment (permeated through the skin) [4, 6]: 3.9 µg/mL | p-HCA found within the skin [4, 6]: 16.3 µg/mL | change of flux of p-HCA through the skin [4, 7]: doubled | elevation of percent of p-HCA that permeates cadaver skin [4, 7]: 43% | elevation of percentage of p-HCA that remained within the skin [4, 7]: about 50%
Compound: O=C(O)C=Cc1ccc(O)cc1 [p-HCA, p-hydroxycinnamic acid]
